Experimental data as given in ChEMBL document CHEMBL4483862, “Open-source discovery of chemical leads for next-generation chemoprotective antimalarials” (2018).
pIC50: −log10 of the molar value.

Test system: Plasmodium berghei
Assay: Luciferase/luciferin-expressing antifolate-resistant parasites were used to infect a culture of HepG2 cells that were pre-incubated with compounds. Infected hepatocytes emit light due to the luciferase reaction. Assay results are presented as the percent inhibition of light emission compared to control. […]
Format: functional
Settings: sporozoite; for IC90: read-out: LUCIFERASE INFECTION ASSAY - IC90
[1] = read-out: LUCIFERASE INFECTION ASSAY - IC50

## CCOC(=O)c1sc(NC(=O)Nc2ccc([N+](=O)[O-])cc2)cc1C
HEPG2TOX_HILL_SLOPE 2.1, HEPG2TOX_R_SQUARED 0.922, PBLUC_HILL_SLOPE 2.24, PBLUC_R_SQUARED 0.786, read-out: LUCIFERASE INFECTION ASSAY - IC50
  pIC50: 5.74
  IC90: 4.91 µM

## CCOc1cccc(-c2cn3c(-c4ccc(C(=O)NC5CC5)cc4)cnc3cn2)c1
HEPG2TOX_HILL_SLOPE 1.3, HEPG2TOX_R_SQUARED 0.854, PBLUC_HILL_SLOPE 1.74, PBLUC_R_SQUARED 0.806, read-out: LUCIFERASE INFECTION ASSAY - IC50
  pIC50: 5.64
  IC90: 8.02 µM

## CNc1snc(C)c1C(=O)N(C)Cc1ccc(F)cc1F
PBLUC_HILL_SLOPE 10.5, PBLUC_R_SQUARED 0.526, read-out: LUCIFERASE INFECTION ASSAY - IC50
  pIC50: 5.45
  IC90: 4.37 µM

## O=[N+]([O-])c1cc(/C=N/O)ccc1Sc1ccccc1
PBLUC_HILL_SLOPE 15.1, PBLUC_R_SQUARED 0.212, read-out: LUCIFERASE INFECTION ASSAY - IC50
  pIC50: < 4.92
  IC90: > 12 µM

## CCOc1ccc(C(=O)NCc2ccco2)cc1Cl
PBLUC_HILL_SLOPE 19.7, PBLUC_R_SQUARED 0.665, read-out: LUCIFERASE INFECTION ASSAY - IC50
  pIC50: 4.94
  IC90: > 11.8 µM

## CCCCN(CC(=O)N1CCCC(c2nc3ccccc3s2)C1)Cc1nc(=O)c2ccccc2[nH]1 (stereo not drawn)
PBLUC_HILL_SLOPE 3.32, PBLUC_R_SQUARED 0.747, read-out: LUCIFERASE INFECTION ASSAY - IC50
  pIC50: 5.20
  IC90: > 10 µM

## CN1CCN(c2ccc(CNc3ccc4ncc(-c5ccc(OC(F)(F)F)cc5)n4n3)cc2)CC1
HEPG2TOX_HILL_SLOPE 14.3, HEPG2TOX_R_SQUARED 0.469, PBLUC_HILL_SLOPE 4.14, PBLUC_R_SQUARED 0.775, read-out: LUCIFERASE INFECTION ASSAY - IC50
  pIC50: 5.44
  IC90: 6.12 µM

## O=C(Nc1ccccc1)N1CCC(C(=O)N2CCN(C(=O)c3ccccc3Cl)CC2)CC1
[1]
  pIC50: < 5.00
  IC90: > 10 µM

## COc1ncccc1-c1cc2c(cn1)nc(NCc1cccc(C)c1)n2C
[1]
  pIC50: < 5.00
  IC90: > 10 µM

## COc1ccc(OC)c(/C=C/C(=O)N2C(=O)c3cccc(N)c3C2=O)c1
HEPG2TOX_HILL_SLOPE 4.32, HEPG2TOX_R_SQUARED 0.934, PBLUC_HILL_SLOPE 15.3, PBLUC_R_SQUARED 0.377, read-out: LUCIFERASE INFECTION ASSAY - IC50
  pIC50: 5.02
  IC90: > 10 µM

## COC(=O)c1ccccc1NC(=O)/C=C/c1ccc(N2CCCS2(=O)=O)cc1
[1]
  pIC50: 5.53
  IC90: 6.74 µM

## CN1C(=O)N(Cc2ccc3ccccc3c2)C(=O)C12CCN(Cc1ccc(C#CC(C)(C)O)cc1)CC2
HEPG2TOX_HILL_SLOPE 3.16, HEPG2TOX_R_SQUARED 0.979, PBLUC_HILL_SLOPE 9.91, PBLUC_R_SQUARED 0.437, read-out: LUCIFERASE INFECTION ASSAY - IC50
  pIC50: 5.64
  IC90: 2.84 µM

## FC(F)(F)c1cc(NC(=S)N2CCC(CCCC3CCN(C(=S)Nc4cc(C(F)(F)F)cc(C(F)(F)F)c4)CC3)CC2)cc(C(F)(F)F)c1
FFLUC_HILL_SLOPE 260, FFLUC_R_SQUARED 0.348, HEPG2TOX_HILL_SLOPE 8.4, HEPG2TOX_R_SQUARED 0.678, PBLUC_HILL_SLOPE 17.9, PBLUC_R_SQUARED 0.0888, read-out: LUCIFERASE INFECTION ASSAY - IC50
  pIC50: < 5.36
  IC90: > 4.38 µM

## Clc1ccc2c(NCc3ccccc3)ccnc2c1
PBLUC_HILL_SLOPE 8.08, PBLUC_R_SQUARED 0.339, read-out: LUCIFERASE INFECTION ASSAY - IC50
  pIC50: 5.50
  IC90: 4.19 µM

## CC(C)c1ccc(-n2c(-c3ccccc3)c[n+]3c2CCc2ccccc2-3)cc1
HEPG2TOX_HILL_SLOPE 1.23, HEPG2TOX_R_SQUARED 0.988, PBLUC_HILL_SLOPE 3.39, PBLUC_R_SQUARED 0.644, read-out: LUCIFERASE INFECTION ASSAY - IC50
  pIC50: 6.19
  IC90: 1.23 µM

## COc1ccc(CNc2ncnc3ccccc23)cc1
PBLUC_HILL_SLOPE 1.65, PBLUC_R_SQUARED 0.126, read-out: LUCIFERASE INFECTION ASSAY - IC50
  pIC50: 5.44
  IC90: > 10 µM

## N#Cc1cnc2c(Cl)cc(F)cc2c1Cl
[1]
  pIC50: < 5.00
  IC90: > 10 µM

## O=c1cc(CN2CCCCCC2)nc2sccn12
[1]
  pIC50: 5.95
  IC90: 1.39 µM

## CC1c2ccsc2CCN1C(=S)NC(=O)c1ccc(Cl)cc1 (stereo not drawn)
HEPG2TOX_HILL_SLOPE 6.89, HEPG2TOX_R_SQUARED 0.823, PBLUC_HILL_SLOPE 41.7, PBLUC_R_SQUARED 0.0283, read-out: LUCIFERASE INFECTION ASSAY - IC50
  pIC50: 5.04
  IC90: > 9.4 µM

## CCn1ccnc1C(=O)Nc1nc(-c2ccc3c(c2)OCCO3)cs1
HEPG2TOX_HILL_SLOPE 10.1, HEPG2TOX_R_SQUARED 0.135, PBLUC_HILL_SLOPE 182, PBLUC_R_SQUARED 0.438, read-out: LUCIFERASE INFECTION ASSAY - IC50
  pIC50: 5.72
  IC90: 1.92 µM

## O=C(c1ccc(NS(=O)(=O)c2cccs2)cc1)N1CCC(c2c[nH]c3ccccc23)CC1
[1]
  pIC50: < 5.00
  IC90: > 10 µM

## O=C(N/N=C(\Cc1ncc[nH]1)c1ccccc1)c1cccs1
HEPG2TOX_HILL_SLOPE 1.23, HEPG2TOX_R_SQUARED 0.975, PBLUC_HILL_SLOPE 4.09, PBLUC_R_SQUARED 0.691, read-out: LUCIFERASE INFECTION ASSAY - IC50
  pIC50: 5.61
  IC90: 4.17 µM

## CC(C)OCc1cccc(NC(=O)Nc2cccc(Cl)c2)c1
HEPG2TOX_HILL_SLOPE 8.19, HEPG2TOX_R_SQUARED 0.0219, PBLUC_HILL_SLOPE 262, PBLUC_R_SQUARED 0.512, read-out: LUCIFERASE INFECTION ASSAY - IC50
  pIC50: 5.75
  IC90: 1.8 µM

## CCOC(=O)/C=C/C(=O)OCC(=O)c1ccc(C2CCCCC2)cc1
HEPG2TOX_HILL_SLOPE 7.18, HEPG2TOX_R_SQUARED 0.791, read-out: LUCIFERASE INFECTION ASSAY - IC50
  pIC50: < 5.00
  IC90: > 10 µM

## CCCn1c(C)cc(/C=C(\C#N)C(=O)Nc2c(C)cccc2C(C)C)c1C
HEPG2TOX_HILL_SLOPE 4.53, HEPG2TOX_R_SQUARED 0.804, PBLUC_HILL_SLOPE 3.44, PBLUC_R_SQUARED 0.565, read-out: LUCIFERASE INFECTION ASSAY - IC50
  pIC50: 5.91
  IC90: 2.35 µM

## O=C(COC(=O)c1cn(-c2ccccc2)nc1-c1cccs1)Nc1nnc(-c2ccccc2)o1
[1]
  pIC50: < 5.00
  IC90: > 10 µM

## COc1ccc(-c2cnc3cnc(-c4ccc(CNc5ccccc5)cc4)cn23)cc1
FFLUC_HILL_SLOPE 9.54, FFLUC_R_SQUARED 0.167, PBLUC_HILL_SLOPE 2.96, PBLUC_R_SQUARED 0.482, read-out: LUCIFERASE INFECTION ASSAY - IC50
  pIC50: 5.33
  IC90: > 8.12 µM

## CC(=O)Nc1ccc(Sc2ccnc3cc(Cl)ccc23)cc1
FFLUC_HILL_SLOPE 2.92, FFLUC_R_SQUARED 0.4, PBLUC_HILL_SLOPE 11.7, PBLUC_R_SQUARED 0.574, read-out: LUCIFERASE INFECTION ASSAY - IC50
  pIC50: 5.48
  IC90: 3.98 µM

## COc1ccc(NS(=O)(=O)c2cc(NC(=O)C3=NNC(=O)CC3)ccc2C)cc1
HEPG2TOX_HILL_SLOPE 2.75, HEPG2TOX_R_SQUARED 0.923, PBLUC_HILL_SLOPE 2.64, PBLUC_R_SQUARED 0.0563, read-out: LUCIFERASE INFECTION ASSAY - IC50
  pIC50: 5.30
  IC90: > 10 µM

## c1cc2c(cc1C1=NNC(=NC3CC3)SC1)CCCC2
FFLUC_HILL_SLOPE 1.51, FFLUC_R_SQUARED 0.952, HEPG2TOX_HILL_SLOPE 2.86, HEPG2TOX_R_SQUARED 0.94, PBLUC_HILL_SLOPE 0.977, PBLUC_R_SQUARED 0.884, read-out: LUCIFERASE INFECTION ASSAY - IC50
  pIC50: 7.53
  IC90: 0.277 µM

## CCc1cc(OCCCCCCN2CCC(C)CC2)ccc1Cl
HEPG2TOX_HILL_SLOPE 8.01, HEPG2TOX_R_SQUARED 0.5, PBLUC_HILL_SLOPE 3.89, PBLUC_R_SQUARED 0.522, read-out: LUCIFERASE INFECTION ASSAY - IC50
  pIC50: 5.35
  IC90: 7.91 µM

## O=C(NCc1nccs1)c1nn(Cc2ccccc2)c2c1CN(C(=O)c1cc3ccccc3[nH]1)CC2
PBLUC_HILL_SLOPE 8.98, PBLUC_R_SQUARED 0.075, read-out: LUCIFERASE INFECTION ASSAY - IC50
  pIC50: 5.24
  IC90: > 6.65 µM

## Cc1ccc(-n2c(C)cc(C(=O)COC(=O)c3[nH]nc4ccccc34)c2C)cc1
HEPG2TOX_HILL_SLOPE 1.65, HEPG2TOX_R_SQUARED 0.879, read-out: LUCIFERASE INFECTION ASSAY - IC50
  pIC50: < 5.00
  IC90: > 10 µM

## Cc1cc(C(=N)NOC(=O)C(C)(C)C)cc(C(=N)NOC(=O)C(C)(C)C)c1
[1]
  pIC50: < 5.06
  IC90: > 8.77 µM

## O=C(CSc1nnc(-c2ccco2)n1-c1ccc2c(c1)OCCO2)Nc1cc(Cl)cc(Cl)c1
[1]
  pIC50: < 5.18
  IC90: > 6.56 µM

## CN(C)c1cccc(-c2cnc3cnc(-c4ccc(C(=O)NCCO)cc4)cn23)c1
[1]
  pIC50: < 5.09
  IC90: > 8.22 µM

## Cc1csc(NC(=O)Nc2ccc(C(F)(F)F)cc2)c1
[1]
  pIC50: < 4.96
  IC90: > 11 µM

## CCOc1ccc(C(C)=O)cc1Cn1cnc2c(cnn2-c2ccccc2)c1=O
FFLUC_HILL_SLOPE 11.6, FFLUC_R_SQUARED 0.166, HEPG2TOX_HILL_SLOPE 1.94, HEPG2TOX_R_SQUARED 0.895, read-out: LUCIFERASE INFECTION ASSAY - IC50
  pIC50: < 5.00
  IC90: > 10 µM

## O=C1C=C/C(=N\Nc2ccc(F)cc2)c2cccnc21
HEPG2TOX_HILL_SLOPE 7.02, HEPG2TOX_R_SQUARED 0.243, read-out: LUCIFERASE INFECTION ASSAY - IC50
  pIC50: < 5.00
  IC90: > 10 µM
